According to patent US4923963A, “Bradykinin antagonist peptides” (Nova Technology Limited Partnership, priority 1987, dated 1990):
Square brackets hold non-standard residues; d marks the D form. Peptide text beside a SMILES is read from it. dPhe(4-Cl) = N[C@H](Cc1ccc(Cl)cc1)C(=O)O; dPhe(4-F) = N[C@H](Cc1ccc(F)cc1)C(=O)O; d2Nal = N[C@H](Cc1ccc2ccccc2c1)C(=O)O; Hyp = O=C(O)[C@@H]1C[C@@H](O)CN1; 2Thi = N[C@@H](Cc1cccs1)C(=O)O; d2Thi = N[C@H](Cc1cccs1)C(=O)O

Tests used:
rat blood pressure = assay: effects on blood pressure in the anesthetized rat (RBP), intraaortic and intravenous bolus; assay type: in vivo; design: RBP-IA: activity class / RBP-IV: activity class: scale not given here; details: for % DESTR (metabolic breakdown of BK-like agonists in RBP assay) / RBP-IA: agonist potency as percent of BK potency / RBP-IV: agonist potency as percent of BK potency: rat, in vivo
Method: The in vivo effects of bradykinin antagonists on blood pressure in the anesthetized rat are determined according to the assay described by Roblero, Ryan and Stewart (Res. Commun. Pathol. Pharmacol. 6:207, 1973). The antagonists also produce inhibition of the bradykinin response when injected as a bolus admixture of bradykinin plus antagonist by either the ia or iv route of administration.

isolated rat uterus = assay type: cell-based
Method: (§1) The bradykinin antagonists were assayed on isolated rat uterus in natural or induced estrus and on guinea pig ileum, according to the commonly accepted assay methods for bradykinin and related kinins as described by Trautschold (Handbook of Expt. Pharmacol. Vol 25, Springer Verlag, pp. 53-55, 1970) for inhibition of the myotropic activity of bradykinin. The inhibition potencies, as determined according to the commonly accepted manner described by Schild for antagonists of biologically active compounds (Br. J. Pharmacol. 2:189, 1947), and expressed as pA2 values are determined on isolated rat uterus (RUT) and isolated guinea pig ileum (GPI). In the assays, a dose-response curve is determined for the reference substance bradykinin. The dose of bradykinin which produced a half maximal contraction of tissue is the ED50 dose. An amount of bradykinin equivalent to twice the ED50 dose is administered to the tissue 30 seconds after the start of incubation of the tissue with a dose of antagonist. Doses of antagonist are increased in this protocol until pre-incubation with a dose of antagonist reduces the contraction in response to the double ED50 dose of bradykinin to response of a single ED50 dose of bradykinin. The pA2 value represents the negative logarithm of the molar concentration of antagonist necessary to reduce the response of a double ED50 dose of bradykinin to that of an ED50 dose. One unit of pA2 value represents an order of magnitude change in potency. For comparison, the negative log of the dose of BK, the dose which causes half maximal contraction of the tissues, is commonly known as the pD2 value. The pD2 value for bradykinin is 7.9 on the rat uterus and 7.4 on the guinea pig ileum.

[1] = test system: isolated guinea pig ileum; assay type: cell-based; design: pA2 /GPI: activity class: scale not given here; details: isolated guinea pig ileum; not quantitated
Method: as §1

SMILES	% DESTR (metabolic breakdown of BK-like agonists in RBP assay) (rat blood pressure) [%]	RBP-IA: agonist potency as percent of BK potency (rat blood pressure) [%]	RBP-IV: agonist potency as percent of BK potency (rat blood pressure) [%]	pA2 /RUT: agonist potency as percent of BK potency (isolated rat uterus) [%]	pA2 /GPI: activity class [1]	also measured
N=C(N)NCCC[C@H](NC(=O)[C@H](CCCCN)NC(=O)[C@@H](N)CCCCN)C(=O)N1CCC[C@H]1C(=O)N1CCC[C@H]1C(=O)NCC(=O)N[C@@H](Cc1cccs1)C(=O)N[C@@H](CO)C(=O)N[C@H](Cc1ccccc1)C(=O)N[C@@H](Cc1cccs1)C(=O)N[C@H](CCCNC(=N)N)C(N)=O [Example 58, Lys-Lys-Arg-Pro-Pro-Gly-Thi-Ser-DPhe-Thi-DArg-NH2] (H-KKRPPG[2Thi]S[dF][2Thi][dR]-NH2)	60	0.2	3	0.02		
N=C(N)NCCC[C@H](NC(=O)[C@H](Cc1cccs1)NC(=O)[C@@H](Cc1ccccc1)NC(=O)[C@H](CO)NC(=O)[C@H](Cc1cccs1)NC(=O)CNC(=O)[C@@H]1CCCN1C(=O)[C@@H]1CCCN1C(=O)[C@@H](N)CCCNC(=N)N)C(N)=O [Example 51, Arg-Pro-Pro-Gly-Thi-Ser-DPhe-Thi-Arg-NH2] (H-RPPG[2Thi]S[dF][2Thi]R-NH2)	52	0.05	2	0.02		
N=C(N)NCCC[C@H](NC(=O)[C@H](Cc1ccccc1)NC(=O)[C@@H](Cc1ccccc1)NC(=O)[C@H](CO)NC(=O)[C@H](Cc1ccccc1)NC(=O)CNC(=O)[C@@H]1C[C@@H](O)CN1C(=O)[C@@H]1CCCN1C(=O)[C@H](N)Cc1ccc(O)cc1)C(=O)O [Example 9, DTyr-Pro-Hyp-Gly-Phe-Ser-DPhe-Phe-Arg] (H-[dY]P[Hyp]GFS[dF]FR-OH)					0	
N=C(N)NCCC[C@H](N)C(=O)N1CCC[C@H]1C(=O)N1CCC[C@H]1C(=O)NCC(=O)N[C@@H](Cc1cccs1)C(=O)N[C@@H](CO)C(=O)N[C@H](Cc1ccccc1)C(=O)N[C@@H](Cc1cccs1)C(=O)N[C@H](CCCNC(=N)N)C(N)=O [Example 55, Arg-Pro-Pro-Gly-Thi-Ser-DPhe-Thi-DArg-NH2] (H-RPPG[2Thi]S[dF][2Thi][dR]-NH2)	61	0.1	0.9	0.01		
N=C(N)NCCC[C@H](NC(=O)[C@H](Cc1ccccc1)NC(=O)[C@@H](Cc1ccccc1)NC(=O)[C@H](CO)NC(=O)[C@H](Cc1ccccc1)NC(=O)CNC(=O)[C@@H]1C[C@@H](O)CN1C(=O)[C@@H]1CCCN1C(=O)[C@H](N)Cc1ccc(F)cc1)C(=O)O [Example 11, FDF-Pro-Hyp-Gly-Phe-Ser-DPhe-Phe-Arg] (H-[dPhe(4-F)]P[Hyp]GFS[dF]FR-OH)					0	
N=C(N)NCCC[C@H](NC(=O)[C@H](Cc1ccccc1)NC(=O)[C@@H](Cc1ccccc1)NC(=O)[C@H](CO)NC(=O)[C@H](Cc1ccccc1)NC(=O)CNC(=O)[C@@H]1C[C@@H](O)CN1C(=O)[C@@H]1CCCN1C(=O)[C@H](N)Cc1ccc(Cl)cc1)C(=O)O [Example 3, CDF-Pro-Hyp-Gly-Phe-Ser-DPhe-Phe-Arg] (H-[dPhe(4-Cl)]P[Hyp]GFS[dF]FR-OH)					0	
N=C(N)NCCC[C@H](NC(=O)[C@H](Cc1cccs1)NC(=O)[C@@H](Cc1ccccc1)NC(=O)[C@H](CO)NC(=O)[C@H](Cc1cccs1)NC(=O)CNC(=O)[C@@H]1CCCN1C(=O)[C@@H]1CCCN1C(=O)[C@@H](Cc1ccc2ccccc2c1)NC(=O)[C@H](CCCCN)NC(=O)[C@@H](N)CCCCN)C(=O)O [Example 24, Lys-Lys-DNal-Pro-Pro-Gly-Thi-Ser-DPhe-Thi-Arg] (H-KK[d2Nal]PPG[2Thi]S[dF][2Thi]R-OH)					0	
N=C(N)NCCC[C@@H](N)C(=O)N[C@H](Cc1ccc(Cl)cc1)C(=O)N1CCC[C@H]1C(=O)N1CCC[C@H]1C(=O)NCC(=O)N[C@@H](Cc1ccccc1)C(=O)N[C@@H](CO)C(=O)N[C@H](Cc1cccs1)C(=O)N[C@@H](Cc1ccccc1)C(=O)N[C@@H](CCCNC(=N)N)C(=O)O [Example 7, DArg-CDF-Pro-Pro-Gly-Phe-Ser-DThi-Phe-Arg] (H-[dR][dPhe(4-Cl)]PPGFS[d2Thi]FR-OH)						RBP-IA: activity class (rat blood pressure; rat blood pressure, intraaortic bolus): 0; RBP-IV: activity class (rat blood pressure; rat blood pressure, intravenous bolus): 0; pA2 /RUT: activity class (isolated rat uterus; isolated rat uterus, not quantitated): 0
